One may read the EC50 as the midpoint of the concentration-response curve. A higher EC50 goes with weaker potency.

One assay addresses T1, KCNQ2/3 channels (Homo sapiens, UniProt O43525+O43526).
T1 construct: expressed in transfected cells; host or cells: CHO-K1
Briefly: Fluorescence assay using a voltage-sensitive dye. As to conditions: 10 μmol test substance; CHO-K1 cells expressing KCNQ2/3 channels; agonistic activity; read-out: % Stimulation [10 μmol] Average. The assay is classed as cell-based. Summed up: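 CHO-K1 cells expressing KCNQ2/3 loaded with membrane-potential dye in ES buffer (1 mM KCl, pH 7.4), compound 30 min at room temperature, then KCl added (final 92 mM). Fluorescence (ex 525/em 560 nm) read before (F1) and at peak after (F2) KCl; agonism from F2/F1 change versus buffer controls, EC50 calculated.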
Consider `Cc1cc(C)cc(C(C)NC(=O)c2cn3c(n2)CCC(c2ccc(F)c(C)c2)C3)c1` (centres unmarked) [Compound 78, N-(1-(3,5-Dimethylphenyl)ethyl)-6-(4-fluoro-3-methylphenyl)-5,6,7,8-tetrahydroimidazo[1,2-a]pyridine-2-carboxamide], for which the activation at 10 µM was 29.7%.
With `O=C(c1cn2c(n1)CCC(c1ccc(F)c(F)c1)C2)N1CCN(c2cccc(C(F)(F)F)c2)CC1` (centres unmarked) [Compound 79, (6-(3,4-Difluorophenyl)-5,6,7,8-tetrahydroimidazo[1,2-a]pyridin-2-yl)(4-(3-(trifluoromethyl)phenyl)piperazin-1-yl)methanone], the activation at 10 µM was determined as 125%.
As to `Cc1cc(C2CCc3nc(C(=O)N4CCN(Cc5ccccc5)CC4)cn3C2)ccc1F` (centres unmarked) [Compound 80, (4-Benzylpiperazin-1-yl)(6-(4-fluoro-3-methylphenyl)-5,6,7,8-tetrahydroimidazo[1,2-a]pyridin-2-yl)methanone], the activation at 10 µM stood at 33.1%.
In the case of `O=C(c1cn2c(n1)CCC(c1ccc(OCc3ccccc3)cc1)C2)N1CCN(c2cccc(C(F)(F)F)c2)CC1` (centres unmarked) [Compound 82, (6-(4-(Benzyloxy)phenyl)-5,6,7,8-tetrahydroimidazo[1,2-a]pyridin-2-yl)(4-(3-(trifluoromethyl)phenyl)piperazin-1-yl)methanone], the activation at 10 µM turned out to be 32.7%.
On the same count and under the same terms, under `Cc1cc(C2CCc3nc(C(=O)N4CC5(C)CC4CC(C)(C)C5)cn3C2)ccc1F` (centres unmarked) [Compound 84, (6-(4-Fluoro-3-methylphenyl)-5,6,7,8-tetrahydroimidazo[1,2-a]pyridin-2-yl)(1,3,3-trimethyl-6-azabicyclo[3.2.1]octan-6-yl)methanone] stands 37.9%; under `Cc1cc(C2CCc3nc(C(=O)N4CCC(c5cccc(C(F)(F)F)c5)CC4)cn3C2)ccc1F` (centres unmarked) [Compound 85, (6-(4-Fluoro-3-methylphenyl)-5,6,7,8-tetrahydroimidazo[1,2-a]pyridin-2-yl)(4-(3-(trifluoromethyl)phenyl)piperidin-1-yl)methanone], 120%; under `Cc1cc(C2CCc3nc(C(=O)N(C)C(C)CCc4cccc(C(F)(F)F)c4)cn3C2)ccc1F` (centres unmarked) [Compound 87, 6-(4-Fluoro-3-methylphenyl)-N-methyl-N-(4-(3-(trifluoromethyl)phenyl)butan-2-yl)-5,6,7,8-tetrahydroimidazo[1,2-a]pyridine-2-carboxamide], 48.4%.
For `Cc1cc(C2CCc3nc(C(=O)NCCC4CCCCC4)cn3C2)ccc1F` (centres unmarked) [Compound 88, N-(2-Cyclohexylethyl)-6-(4-fluoro-3-methylphenyl)-5,6,7,8-tetrahydroimidazo[1,2-a]pyridine-2-carboxamide], the activation at 10 µM amounted to 47.9%.

The same assay, now with this note: CHO-K1 cells expressing KCNQ2/3 channels; agonistic activity.
Consider `Cc1cc(C)cc(C2CCc3nc(C(=O)N4CCN(c5cccc(C(F)(F)F)c5)CC4)cn3C2)c1` (centres unmarked) [Compound 77, (6-(3,5-Dimethylphenyl)-5,6,7,8-tetrahydroimidazo[1,2-a]pyridin-2-yl)(4-(3-(trifluoromethyl)phenyl)piperazin-1-yl)methanone], for which the EC50 turned out to be 80 nM.
On the same count and under the same terms, in the case of `Cc1cc(C2CCc3nc(C(=O)N4CCN(c5cccc(F)c5)CC4)cn3C2)ccc1F` (centres unmarked) [Compound 83, (6-(4-Fluoro-3-methylphenyl)-5,6,7,8-tetrahydroimidazo[1,2-a]pyridin-2-yl)(4-(3-fluorophenyl)piperazin-1-yl)methanone] it was 6500 nM; in that of `Cc1cc(C2CCc3nc(C(=O)NC(C)CCc4cccc(C(F)(F)F)c4)cn3C2)ccc1F` (centres unmarked) [Compound 86, 6-(4-Fluoro-3-methylphenyl)-N-(4-(3-(trifluoromethyl)phenyl)butan-2-yl)-5,6,7,8-tetrahydroimidazo[1,2-a]pyridine-2-carboxamide], 1200 nM.

Values taken from patent publication US8288424B2, “Substituted tetrahydroimidazopyridine compounds and the use thereof in the treatment of pain and other conditions” (Gruenenthal GmbH, priority 2008, dated 2012).
